Laboratory results taken from patent US20230150977A1, “PYRIDAZINONE COMPOUNDS FOR THE TREATMENT OF NEUROMUSCULAR DISEASES” (Edgewise Therapeutics, Inc., priority 2020, published 2023).

Target: skeletal myofibrils (Rabbit Psoas) myosin ATPase
Experiment: Skeletal Myofibril ATPase Assay
Assay type: biochemical
Conditions: PK/LDH coupled, absorbance at 340 nm
Procedure: Overview: Myosin ATPase activity was assessed by using a coupled reaction system, in which ADP generated by the myosin ATPase function was coupled to the disappearance of NADH through the pyruvate kinase/lactate dehydrogenase (PK-LDH) system. Myosin ATPase activity produces ADP, which was used as a substrate for PK to produce pyruvate and regenerate ATP. The pyruvate was then used as a substrate by LDH to oxidize NADH to NAD+. The rate of the reaction was monitored through the time-dependent disappearance of NADH using absorbance at 340 nm. Inhibition of ATPase activity by the assayed compounds was indicated by a reduced rate of NADH loss, relative to vehicle-treated controls, over the experimental time window. To assess the selectivity of the assayed compounds for skeletal myofibrils, the compounds were counter-screened in cardiac myofibrils.
Materials: The following stock solutions and reagents were used in the Skeletal Myofibril ATPase Assay:
Stock Solutions of pCa buffer. Combine PIPES, CaCl2, and EGTA solutions with 70 mL of water. Adjust pH to 7.0 and bring final volume to 100 mL.
Buffer A & Buffer B. Buffers were stored on ice until use.
Skeletal Myofibril ATPase Assay Procedure: BSA, ATP, NADH, PEP, and DTT solutions were thawed at room temperature, then transferred to ice. Pellet-frozen myofibrils (approximately twice the required volume) were transferred into a sufficiently large tube and capped. Myofibrils were thawed by rolling in a water bath for approximately 15 min at room temperature and cooled on ice. Buffers A and B were prepared by adjusting volumes as necessary for required number of wells and stored on ice. 0.5 μL of the compounds to be assayed were added into wells of a 384-well plate. Buffers A and B were mixed by inversion immediately prior to use, then 25 μL of each was dispensed using a Multidrop dispenser (Buffer A first, then Buffer B). The absorbance within the wells was measured at 340 nm, using a kinetic protocol in which the wells are read every 1.5-2 min for 1 h. The reaction rate was qualitatively assessed by subtracting the minimum absorbance value from the maximum value for each well, using either the SoftMax Pro plate reader software or a spreadsheet program such as Excel. Using GraphPad Prism 8.0, the data was normalized, with 100% activity defined as the absorbance change in the 1% DMSO vehicle wells and 0% assigned to no change in absorbance over the course of the experiment. The normalized data were fit to a variable-slope four-parameter logistic model, constraining the bottom to be 0 or greater. Compounds of Table 1 to 3 were tested and results of the assay appear in Table 4 herein. A=IC50 is less than or equal to 10 μM; B=IC50 is greater than 10 μM and less than 100 μM; C=IC50 is greater than 100 μM.

SMILES	IC50 [µM]
COc1ccc(-c2ccc(=O)n(CCc3ccccc3)n2)cc1 [Compound 16, 6-(4-methoxyphenyl)-2-phenethylpyridazin-3(2H)-one]	≤ 10
CC(C)(C)CCn1nc(-c2cnc(OCC(F)(F)F)nc2)ccc1=O [Compound 17, 2-(3,3-dimethylbutyl)-6-(2-(2,2,2-trifluoroethoxy)pyrimidin-5-yl)pyridazin-3(2H)-one]	10 to 100
O=c1ccc(-c2ccccc2)nn1CC(O)COCc1ccccc1Cl (stereo not shown) [Compound 18, 2-(3-((2-chlorobenzyl)oxy)-2-hydroxypropyl)-6-phenylpyridazin-3(2H)-one]	10 to 100
O=c1ccc(-c2cnc(OCC(F)(F)F)nc2)nn1CCc1ccncc1 [Compound 19, 2-[2-(pyridin-4-yl)ethyl]-6-[2-(2,2,2-trifluoroethoxy)pyrimidin-5-yl]pyridazin-3-one]	≤ 10
CSc1ccc(-c2ccc(=O)n(C/C=C/c3ccccc3)n2)cc1 [Compound 20, 2-cinnamyl-6-(4-(methylthio)phenyl)pyridazin-3(2H)-one]	≤ 10
O=c1ccc(-c2ccc(Cl)cc2)nn1CC1CCCCC1 [Compound 21, 6-(4-chlorophenyl)-2-(cyclohexylmethyl)pyridazin-3(2H)-one]	≤ 10
O=c1ccc(-c2ccc3c(c2)OCCCO3)nn1CCOc1ccc(F)cc1 [Compound 22, 6-(3,4-dihydro-2H-benzo[b][1,4]dioxepin-7-yl)-2-(2-(4-fluorophenoxy)ethyl)pyridazin-3(2H)-one]	10 to 100
N#CCn1nc(-c2ccc(Br)cc2)ccc1=O [Compound 23, 2-(3-(4-bromophenyl)-6-oxopyridazin-1(6H)-yl)acetonitrile]	10 to 100
CCOc1ccc(-c2ccc(=O)n(CCNC(=O)CC3CCCC3)n2)cc1 [Compound 24, 2-cyclopentyl-N-(2-(3-(4-ethoxyphenyl)-6-oxopyridazin-1(6H)-yl)ethyl)acetamide]	> 100
N#CCn1nc(-c2cnc(OCC(F)(F)F)nc2)ccc1=O [Compound 25, 2-(6-oxo-3-(2-(2,2,2-trifluoroethoxy)pyrimidin-5-yl)pyridazin-1(6H)-yl)acetonitrile]	10 to 100
CC(C)OCCn1nc(-c2ccc3c(c2)OCCCO3)ccc1=O [Compound 26, 6-(3,4-dihydro-2H-benzo[b][1,4]dioxepin-7-yl)-2-(2-isopropoxyethyl)pyridazin-3(2H)-one]	10 to 100
C=C(C)Cn1nc(-c2ccc(Br)cc2)ccc1=O [Compound 27, 6-(4-bromophenyl)-2-(2-methylallyl)pyridazin-3(2H)-one]	10 to 100
CCOc1ccc(-c2ccc(=O)n(CCNC(=O)C3CCCC3)n2)cc1 [Compound 28, N-(2-(3-(4-ethoxyphenyl)-6-oxopyridazin-1(6H)-yl)ethyl)cyclopentanecarboxamide]	> 100
CC(=O)NCCn1nc(-c2ccc(OC(F)F)cc2)ccc1=O [Compound 29, N-(2-(3-(4-(difluoromethoxy)phenyl)-6-oxopyridazin-1(6H)-yl)ethyl)acetamide]	> 100
CS(=O)(=O)NCCn1nc(-c2ccc(OC(F)F)nc2)ccc1=O [Compound 30, N-(2-(3-(6-(difluoromethoxy)pyridin-3-yl)-6-oxopyridazin-1(6H)-yl)ethyl)methanesulfonamide]	> 100
CC1(Cn2nc(-c3ccc(OC(F)F)nc3)ccc2=O)COC1 [Compound 31, 6-(6-(difluoromethoxy)pyridin-3-yl)-2-((3-methyloxetan-3-yl)methyl)pyridazin-3(2H)-one]	> 100
CC1(Cn2nc(-c3cnc(OCC(F)(F)F)nc3)ccc2=O)COC1 [Compound 32, 2-((3-methyloxetan-3-yl)methyl)-6-(2-(2,2,2-trifluoroethoxy)pyrimidin-5-yl)pyridazin-3(2H)-one]	> 100
CCNC(Cn1nc(-c2ccc(OC(F)F)nc2)ccc1=O)C(F)(F)F (stereo not shown) [Compound 33, 6-(6-(difluoromethoxy)pyridin-3-yl)-2-(2-(ethylamino)-3,3,3-trifluoropropyl)pyridazin-3(2H)-one]	> 100
O=c1ccc(-c2ccc(OC(F)F)nc2)nn1CCO [Compound 34, 6-(6-(difluoromethoxy)pyridin-3-yl)-2-(2-hydroxyethyl)pyridazin-3(2H)-one]	> 100
O=c1ccc(-c2ccc(Cl)cc2)nn1CC1CCOCC1 [Compound 35, 6-(4-chlorophenyl)-2-((tetrahydro-2H-pyran-4-yl)methyl)pyridazin-3(2H)-one]	> 100
O=C(CCn1nc(-c2ccccc2)ccc1=O)NC1CCCCC1 [Compound 36, N-cyclohexyl-3-(6-oxo-3-phenylpyridazin-1(6H)-yl)propanamide]	> 100
COc1ccc(-c2ccc(=O)n(CCNC(=O)Nc3cccs3)n2)cc1 [Compound 37, 1-(2-(3-(4-methoxyphenyl)-6-oxopyridazin-1(6H)-yl)ethyl)-3-(thiophen-2-yl)urea]	> 100

The remaining lines, values ahead:

IC50 [µM]	SMILES
≤ 10	O=c1ccc(-c2cnc(OCC(F)(F)F)nc2)nn1CCC1CCC1 [Compound 1, 2-(2-cyclobutylethyl)-6-(2-(2,2,2-trifluoroethoxy)pyrimidin-5-yl)pyridazin-3(2H)-one]
≤ 10	O=c1ccc(-c2cnc(OCC(F)(F)F)nc2)nn1CCCc1ccccc1 [Compound 2, 2-(3-phenylpropyl)-6-(2-(2,2,2-trifluoroethoxy)pyrimidin-5-yl)pyridazin-3(2H)-one]
≤ 10	CC1CC1CCn1nc(-c2cnc(OCC(F)(F)F)nc2)ccc1=O (stereo not shown) [Compound 3, 2-(2-(2-methylcyclopropyl)ethyl)-6-(2-(2,2,2-trifluoroethoxy)pyrimidin-5-yl)pyridazin-3(2H)-one]
≤ 10	O=c1ccc(-c2cnc(OCC(F)(F)F)nc2)nn1CCc1ccccc1 [Compound 4, 2-phenethyl-6-(2-(2,2,2-trifluoroethoxy)pyrimidin-5-yl)pyridazin-3(2H)-one]
≤ 10	O=c1ccc(-c2cnc(OCC(F)(F)F)nc2)nn1CCC1CC1 [Compound 5, 2-(2-cyclopropylethyl)-6-(2-(2,2,2-trifluoroethoxy)pyrimidin-5-yl)pyridazin-3(2H)-one]
≤ 10	O=c1ccc(-c2cnc(OCC(F)(F)F)nc2)nn1CCc1ccc(Cl)cc1 [Compound 6, 2-(4-chlorophenethyl)-6-(2-(2,2,2-trifluoroethoxy)pyrimidin-5-yl)pyridazin-3(2H)-one]
≤ 10	O=c1ccc(-c2cnc(OCC(F)(F)F)nc2)nn1CCC12CC(C1)C2 [Compound 7, 2-(2-(bicyclo[1.1.1]pentan-1-yl)ethyl)-6-(2-(2,2,2-trifluoroethoxy)pyrimidin-5-yl)pyridazin-3(2H)-one]
≤ 10	CCCn1nc(-c2cnc(OCC(F)(F)F)nc2)ccc1=O [Compound 8, 2-propyl-6-(2-(2,2,2-trifluoroethoxy)pyrimidin-5-yl)pyridazin-3(2H)-one]
≤ 10	O=c1ccc(-c2cnc(OCC(F)(F)F)nc2)nn1CCc1cncc(F)c1 [Compound 9, 2-(2-(5-fluoropyridin-3-yl)ethyl)-6-(2-(2,2,2-trifluoroethoxy)pyrimidin-5-yl)pyridazin-3(2H)-one]
≤ 10	O=c1ccc(-c2cnc(OCC(F)(F)F)nc2)nn1CCc1ccccn1 [Compound 10, 2-(2-(pyridin-2-yl)ethyl)-6-(2-(2,2,2-trifluoroethoxy)pyrimidin-5-yl)pyridazin-3(2H)-one]
≤ 10	O=c1ccc(-c2ccc(OC(F)F)cc2)nn1CCc1ccc(Cl)cc1 [Compound 11, 2-(4-chlorophenethyl)-6-(4-(difluoromethoxy)phenyl)pyridazin-3(2H)-one]
≤ 10	O=c1ccc(-c2ccc(OC(F)F)nc2)nn1CCc1ccc(Cl)cc1 [Compound 12, 2-(4-chlorophenethyl)-6-(6-(difluoromethoxy)pyridin-3-yl)pyridazin-3(2H)-one]
≤ 10	CC(Cn1nc(-c2cnc(OCC(F)(F)F)nc2)ccc1=O)c1ccccc1 (stereo not shown) [Compound 13, 2-(2-phenylpropyl)-6-(2-(2,2,2-trifluoroethoxy)pyrimidin-5-yl)pyridazin-3(2H)-one]
≤ 10	COc1ccc(-c2ccc(=O)n(CC3CCCCC3)n2)cc1 [Compound 14, 2-(cyclohexylmethyl)-6-(4-methoxyphenyl)pyridazin-3(2H)-one]
≤ 10	O=c1ccc(-c2ccc(Cl)cc2)nn1CCc1ccccc1 [Compound 15, 6-(4-chlorophenyl)-2-phenethylpyridazin-3(2H)-one]
